Assay type in all cases: biochemical
Holding throughout (settings): method of Davies et al.

For experiment [1], the target named is T1, p38-regulated/activated kinase (PRAK) (Homo sapiens, UniProt Q8IW41).
T1 sequence (Q8IW41 1-473): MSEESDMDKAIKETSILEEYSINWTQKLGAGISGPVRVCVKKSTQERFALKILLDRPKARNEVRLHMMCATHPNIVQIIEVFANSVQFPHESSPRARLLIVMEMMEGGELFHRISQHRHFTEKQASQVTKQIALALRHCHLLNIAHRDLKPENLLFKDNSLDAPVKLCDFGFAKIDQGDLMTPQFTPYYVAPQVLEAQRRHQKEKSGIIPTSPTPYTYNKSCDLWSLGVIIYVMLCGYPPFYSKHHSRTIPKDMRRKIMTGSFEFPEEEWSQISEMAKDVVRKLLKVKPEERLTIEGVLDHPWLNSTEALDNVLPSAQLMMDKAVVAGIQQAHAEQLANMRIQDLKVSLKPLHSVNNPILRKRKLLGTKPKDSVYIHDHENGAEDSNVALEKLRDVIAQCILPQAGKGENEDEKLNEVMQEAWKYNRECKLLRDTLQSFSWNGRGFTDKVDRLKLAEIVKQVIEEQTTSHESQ
Kind of experiment: Panel of protein kinases: PRAK. The procedure:
(§1) The compounds of the present invention were screened against a large panel of protein kinase to determine inhibition activity for CDK as against a variety of protein kinases. The assay was conducted using methods and materials described by Davies, S et al. Specificity and Mechanism of Action of Some Commonly Used Protein Kinase Inhibitors, Biochem J. 351, 95–105 (2000), the contents of which are herein incorporated by reference. The compounds were screened against a panel of protein kinases which include AMP-activiated protein kinase (AMPK), checkpoint kinase (CHK1), casein kinases 1 and 2 (CK1 and CK2), cytoplasmic tyrosine kinase (CSK), dual serine/threonine/tyrosine kinase (DYRK1A), glycogen synthase kinase 3 (GSK3B), c-Jun N-terminal kinase (JNK), lymphocyte kinase (LCK), mitogen-activated protein kinases 2, K-1a, K2 (MAPK2, MAPKAP-K1a, and MAPKAP-K2), MAPK kinase (MKK1, also called MEK), mitogen and stress-activated protein kinase 1 (MSK1), never-in-mitosis kinase 6 (NEK6), p70 ribosomal protein S6 kinase (P70s6K1), 3-phosphoinositide-dependent protein kinase 1 (PDK1), phosphorylase kinase (PHK), protein kinase A (PKA), protein kinase B (PKB, also called Akt), protein kinase C (PKCa), p38-regulated/activated kinase (PRAK), Rho-dependent protein kinase (ROCK-II), stress-activated protein kinase 2a, 2b, 3 and 4 (SAPK-2A or p38, SAPK-2b or p38β2, SAPK3 or p38γ, SAPK4 or p38δ, respectively), and serum- and glucocorticoid-induced kinase (SGK). Compound activity was grouped into categories of weak (<50%), moderate (50–75%) and strong inhibition (>75%).

Experiment [2] concerns the target mitogen and stress-activated protein kinase 1 (MSK1) (Homo sapiens, UniProt O75582). Put plainly: Panel of protein kinases: MSK1. Here is the method:
as §1

A further experiment has as its system casein kinase 2 (CK2). Kind of experiment: Panel of protein kinases: CK2. The procedure:
as §1

Experiment [3] addresses T2, serum- and glucocorticoid-induced kinase (SGK) (Homo sapiens, UniProt O00141, S422D).
T2 sequence (O00141 61-431 S422D limits assumed): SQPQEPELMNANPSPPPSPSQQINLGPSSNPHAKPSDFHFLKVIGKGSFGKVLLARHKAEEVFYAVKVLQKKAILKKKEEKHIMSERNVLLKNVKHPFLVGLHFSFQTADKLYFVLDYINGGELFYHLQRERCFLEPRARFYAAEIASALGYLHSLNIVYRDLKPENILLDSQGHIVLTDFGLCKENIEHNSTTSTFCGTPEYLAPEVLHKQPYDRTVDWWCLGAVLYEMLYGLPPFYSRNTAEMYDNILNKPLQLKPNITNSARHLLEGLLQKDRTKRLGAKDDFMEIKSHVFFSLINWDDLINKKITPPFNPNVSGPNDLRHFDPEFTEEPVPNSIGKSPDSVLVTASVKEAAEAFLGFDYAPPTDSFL
Put plainly: Panel of protein kinases: SGK. Here is the method:
as §1

Another experiment deals with casein kinase 1 (CK1). Kind of experiment: Panel of protein kinases: CK1. The procedure:
as §1

In the next experiment the target is protein kinase A (PKA) (Bos taurus, UniProt P00517). Kind of experiment: Panel of protein kinases: PKA. The procedure:
as §1

For experiment [4], the system named is AMP-activiated protein kinase (AMPK). Put plainly: Panel of protein kinases: AMPK. Here is the method: as §1
The next experiment deals with CDK2/A (Homo sapiens, UniProt P24941). Kind of experiment: Panel of protein kinases: CDK2/A. Here is the method:
as §1

Experiment [5] concerns the target stress-activated protein kinase 2b (SAPK-2b or p38β2) (Homo sapiens, UniProt Q15759). Put plainly: Panel of protein kinases: SAPK-2b. The procedure: as §1
Experiment [6] has as its target dual serine/threonine/tyrosine kinase (DYRK1A) (Homo sapiens, UniProt Q13627). Put plainly: Panel of protein kinases: DYRK1A. The procedure: as §1
For experiment [7], the target named is c-Jun N-terminal kinase (JNK) (Homo sapiens, UniProt P45983). Put plainly: Panel of protein kinases: JNK. The procedure: as §1
Experiment [8] has as its target T3, 3-phosphoinositide-dependent protein kinase 1 (PDK1) (Homo sapiens, UniProt O15530).
T3 sequence (O15530 1-556): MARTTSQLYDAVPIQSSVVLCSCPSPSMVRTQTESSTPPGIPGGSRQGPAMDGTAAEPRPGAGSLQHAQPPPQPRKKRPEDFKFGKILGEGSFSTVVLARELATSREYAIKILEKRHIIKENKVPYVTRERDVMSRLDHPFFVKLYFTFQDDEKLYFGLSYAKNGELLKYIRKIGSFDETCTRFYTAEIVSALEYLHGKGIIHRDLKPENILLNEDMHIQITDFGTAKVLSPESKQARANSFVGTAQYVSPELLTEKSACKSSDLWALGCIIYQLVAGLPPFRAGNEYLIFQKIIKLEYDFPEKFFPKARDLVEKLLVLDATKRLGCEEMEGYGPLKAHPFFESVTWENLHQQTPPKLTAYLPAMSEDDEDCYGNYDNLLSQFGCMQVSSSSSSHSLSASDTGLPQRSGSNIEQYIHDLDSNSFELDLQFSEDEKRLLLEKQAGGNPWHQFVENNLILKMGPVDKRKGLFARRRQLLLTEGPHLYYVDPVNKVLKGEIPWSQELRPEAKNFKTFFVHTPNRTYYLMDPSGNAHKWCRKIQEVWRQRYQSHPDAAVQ
Kind of experiment: Panel of protein kinases: PDK1. Here is the method: as §1

The target in experiment [9] is stress-activated protein kinase 2a (SAPK-2A or p38) (Homo sapiens, UniProt Q16539). Kind of experiment: Panel of protein kinases: SAPK-2A. The procedure:
as §1

The target of experiment [10] is phosphorylase kinase (PHK) (Oryctolagus cuniculus, UniProt P00518). Kind of experiment: Panel of protein kinases: PHK. The procedure: as §1

SMILES strings stand for the structures.

c-Jun N-terminal kinase (JNK), sequence (P45983 whole entry): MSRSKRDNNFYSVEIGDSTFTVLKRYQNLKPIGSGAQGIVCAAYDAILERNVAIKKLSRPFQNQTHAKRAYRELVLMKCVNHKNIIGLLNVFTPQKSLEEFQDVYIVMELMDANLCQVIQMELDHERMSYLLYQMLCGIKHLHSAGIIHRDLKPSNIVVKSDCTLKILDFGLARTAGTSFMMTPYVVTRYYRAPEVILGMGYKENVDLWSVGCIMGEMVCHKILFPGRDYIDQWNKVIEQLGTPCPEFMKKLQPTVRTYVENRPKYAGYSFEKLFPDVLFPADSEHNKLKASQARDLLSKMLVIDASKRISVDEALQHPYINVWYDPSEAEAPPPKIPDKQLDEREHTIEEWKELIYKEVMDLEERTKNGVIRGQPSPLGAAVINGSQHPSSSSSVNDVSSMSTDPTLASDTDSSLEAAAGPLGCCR
stress-activated protein kinase 2a (SAPK-2A or p38), sequence (Q16539 whole entry, species assumed): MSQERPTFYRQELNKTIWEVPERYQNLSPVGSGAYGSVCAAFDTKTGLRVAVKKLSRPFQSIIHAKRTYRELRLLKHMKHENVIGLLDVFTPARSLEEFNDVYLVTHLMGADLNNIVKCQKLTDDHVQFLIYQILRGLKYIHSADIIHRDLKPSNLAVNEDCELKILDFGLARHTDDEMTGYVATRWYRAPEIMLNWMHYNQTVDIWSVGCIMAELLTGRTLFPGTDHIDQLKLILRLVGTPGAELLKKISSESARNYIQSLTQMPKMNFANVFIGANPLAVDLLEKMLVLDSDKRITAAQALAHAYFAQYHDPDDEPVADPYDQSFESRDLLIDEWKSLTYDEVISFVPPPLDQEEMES
stress-activated protein kinase 2b (SAPK-2b or p38β2), sequence (Q15759 whole entry): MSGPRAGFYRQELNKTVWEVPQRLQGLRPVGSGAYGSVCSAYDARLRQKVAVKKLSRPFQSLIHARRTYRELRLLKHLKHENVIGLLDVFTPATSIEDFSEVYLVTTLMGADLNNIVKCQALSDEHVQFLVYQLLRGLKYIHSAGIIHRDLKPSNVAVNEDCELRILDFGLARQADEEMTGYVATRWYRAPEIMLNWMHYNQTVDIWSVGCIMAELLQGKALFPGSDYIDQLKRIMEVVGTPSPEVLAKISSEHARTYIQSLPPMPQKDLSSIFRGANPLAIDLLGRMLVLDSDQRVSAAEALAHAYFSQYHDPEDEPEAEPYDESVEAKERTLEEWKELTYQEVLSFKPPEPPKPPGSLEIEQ
mitogen and stress-activated protein kinase 1 (MSK1), sequence (O75582 whole entry, species assumed): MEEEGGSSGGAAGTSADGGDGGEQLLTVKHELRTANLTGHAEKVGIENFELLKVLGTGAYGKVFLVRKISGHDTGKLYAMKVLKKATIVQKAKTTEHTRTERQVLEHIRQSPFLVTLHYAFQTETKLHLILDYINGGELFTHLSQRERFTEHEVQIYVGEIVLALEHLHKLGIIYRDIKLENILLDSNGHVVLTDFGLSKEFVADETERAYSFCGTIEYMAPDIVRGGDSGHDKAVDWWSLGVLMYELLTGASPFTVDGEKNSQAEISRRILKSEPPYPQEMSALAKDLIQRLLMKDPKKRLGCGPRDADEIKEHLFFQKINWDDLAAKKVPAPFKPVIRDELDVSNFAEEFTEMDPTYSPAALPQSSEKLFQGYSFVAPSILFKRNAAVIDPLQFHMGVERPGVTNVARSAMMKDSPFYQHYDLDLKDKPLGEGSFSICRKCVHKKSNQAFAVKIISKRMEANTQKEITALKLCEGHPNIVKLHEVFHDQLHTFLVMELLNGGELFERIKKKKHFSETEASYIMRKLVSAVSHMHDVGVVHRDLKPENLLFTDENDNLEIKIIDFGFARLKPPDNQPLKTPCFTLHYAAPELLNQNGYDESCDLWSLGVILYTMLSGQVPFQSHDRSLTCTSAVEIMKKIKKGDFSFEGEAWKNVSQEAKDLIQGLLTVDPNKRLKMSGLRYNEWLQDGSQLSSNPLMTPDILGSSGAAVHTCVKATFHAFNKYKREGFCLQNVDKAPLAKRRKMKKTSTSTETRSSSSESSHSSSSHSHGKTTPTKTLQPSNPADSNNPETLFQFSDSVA

For `CCNCc1cncc(-c2ccc3[nH]nc(-c4nc5c(F)cc(F)cc5[nH]4)c3c2)c1C` [Example 1, {5-[3-(4,6-Difluoro-1H-benzoimidazol-2-yl)-1H-indazol-5-yl]-4-methyl-pyridin-3-ylmethyl}-ethyl-amine], the “Kinase PRAK inhibition” value in [1] is listed as “− (Weak inhibition <50%)”. Besides, the “Kinase MSK1 inhibition” value in experiment [2] is given as “− (Weak inhibition <50%)”. In the experiment on casein kinase 2 (CK2), the “Kinase CK2 inhibition” value was “− (Weak inhibition <50%)”. The “Kinase SGK inhibition” value in [3] is “− (Weak inhibition <50%)”. In addition, in the experiment on casein kinase 1 (CK1), the “Kinase CK1 inhibition” value is “− (Weak inhibition <50%)”. Moreover, the “Kinase PKA inhibition” value on protein kinase A (PKA) was “− (Weak inhibition <50%)”. For the same compound, the “Kinase AMPK inhibition” value in experiment [4] is on record as “++ (Strong inhibition >75%)”. Further, on CDK2/A, the “Kinase CDK2/A inhibition” value is listed as “++ (Strong inhibition >75%)”. The “Kinase SAPK-2b inhibition” value in [5] is recorded as “− (Weak inhibition <50%)”. Also, in [6], the “Kinase DYRK1A inhibition” value is given as “++ (Strong inhibition >75%)”. Further, the “Kinase JNK inhibition” value in experiment [7] is on record as “− (Weak inhibition <50%)”. For the same compound, the “Kinase PDK1 inhibition” value in experiment [8] was “− (Weak inhibition <50%)”. Moreover, the “Kinase SAPK-2A inhibition” value in [9] is “− (Weak inhibition <50%)”. In addition, the “Kinase PHK inhibition” value in experiment [10] was “+ (Moderate inhibition 50–75%)”.

These data come from patent US7008953B2, “3, 5 Disubstituted indazole compounds, pharmaceutical compositions, and methods for mediating or inhibiting cell proliferation” (Agouron Pharmaceuticals, Inc., priority 2003, dated 2006).
